{
  "source": "patent US20070010582A1",
  "about": "“Use of N-chlorotaurine for treatment of oozing tissue deficiencies” (priority 2005, published 2007)",
  "key": {"[1]": {"test": "Pilot study (open phase IIa) after tympanoplasty: tolerability", "assay_type": "in vivo, human", "conditions": "12 patients", "description": "(§1) After removing the ear-tamponade, which remained in place for 2 to 3 weeks postoperatively, 3 ml of the 1% aqueous NCT solution was applied once daily to the outer ear canal. The endpoint of the treatment was defined as a completely dry canal, corresponding to a clinical score of zero (see below for scoring).\nThe second criterion was subjective pain, ascertained by a visual analogue scale.\nBefore and at the end of the study an audiogram was performed in all patients.\nAll subjects completed the study."}, "[2]": {"system": "open leg ulcer with fibrous coating", "test": "Wound dressing soaked with NCT solution on open leg ulcer with fibrous coating (case report)", "assay_type": "in vivo, human", "conditions": "single patient", "description": "A human patient suffering from an open leg ulcer with fibrous coating caused by a burn accident was treated two times daily with wound dressing soaked with aqueous 1% NCT solution. […] Microbiological cultures of swabs before and after therapy were sterile."}, "outer ear canal": {"system": "outer ear canal", "test": "Pilot study (open phase IIa), postoperative irrigation of external auditory canal after tympanoplasty: efficacy", "assay_type": "in vivo, human", "conditions": "12 patients", "description": "Local irrigations of the external auditory canal with 3 ml of 1% N-chlorotaurine solution were performed once daily until the canal was dry.\nAn open phase IIa study was performed in 12 patients after tympanoplasty. They received a single-shot antibiotic therapy with 2 g Spizef (cefotiam) i.v. perioperatively.\nas §1\nThe primary criterion for the judgement of the status of the external meatus was a six-scale clinical score (0-5) based on visual observation via ear microscopy (zero=dry outer ear canal; 5=moist outer ear canal with inflammation).\nClinical examination of the outer ear canal was performed daily for detection of moisture, signs of infection, and judgement of epithelisation of the neo-tympanon.\nA completely dry external meatus (score zero) was considered as the endpoint criterion for the termination of the study.\nMoisture and inflammation of the external auditory canal during and after irrigation with NCT were compared to those before treatment using the Wilcoxon test. P-values <0.05 were considered to indicate statistical significance. Due to the limited number of patients no corrections for multiple comparisons were applied."}, "[3]": {"test": "Storage stability of aqueous NCT solution", "assay_type": "physicochemical", "conditions": "1% (55 mM) aqueous solution stored at 2-4° C.", "description": "Pure NCT as a crystalline sodium salt was dissolved in sterile distilled water to a concentration of 1% (55 mM). Purity was verified by iodometric titration and spectrophotometry. […] Solutions were stored at 2-4° C., where they are stable for 1 year, and allowed to reach room temperature before application to the patients."}, "[4]": {"test": "pH of aqueous NCT solution", "assay_type": "physicochemical", "conditions": "no buffers"}, "oozing ear channel": {"system": "oozing ear channel", "test": "Instillation/rinsing of the oozing ear channel with NCT solution after tympanoplasty (case reports)", "assay_type": "in vivo, human", "description": "Rinsing the ear channel with NCT solution provokes in general a drying of the ear channel and the tympanoplastic within 1-2 days.\nA human patient with a traumatic perforation of the tympanic membrane was provided with a tympanoplasty. After removing incrustations and granulation tissue, the destroyed tympanic membrane was excised and substituted by a fascia temporalis. After taking away the tamponade, the microbiological culture of a swab from the reconstructed tympanic membrane and the ear channel was sterile. Subsequently, the oozing ear channel was treated one time daily for two days by instillation of 2 mL of aqueous 1% NCT solution. […] The complete epithelization was achieved 3 days earlier than by the conventional treatment with fuchsine.\nA human patient suffering from a perforation of the tympanic membrane caused by a chronic inflammation of the middle ear received tympanoplasty. After removing incrustations and granulation tissue, the destroyed tympanic membrane was excised and substituted by a fascia temporalis. After taking away the tamponade, the microbiological culture of a swab from the reconstructed tympanic membrane and the ear channel was sterile. Subsequently, the oozing and swollen ear channel was treated one time daily for five days by instillation of 2 mL of aqueous 1% NCT solution. […] The complete epithelization was achieved 3 days earlier than by the conventional treatment with fuchsine."}, "[5]": {"conditions": "single patient after tympanoplasty, 2 mL aqueous 1% NCT solution one time daily"}},
  "data": [
    {"smiles": "O=S(=O)(O)CCNCl", "note": "[NCT, N-chlorotaurine]", "values": [
      {"measurement": "allergic reactions during the whole period of treatment", "setting": "[1]; 3 ml 1% NCT once daily", "result": "no signs of allergic reactions"},
      {"measurement": "damage to the inner ear (audiogram before and after treatment)", "setting": "[1]; 3 ml 1% NCT once daily", "result": "no signs of damage to the inner ear"},
      {"measurement": "dizziness or nystagmus", "setting": "[1]; 3 ml 1% NCT once daily", "result": "No dizziness or nystagmus occurred"},
      {"measurement": "subjective pain (visual analogue scale)", "setting": "[1]; 3 ml 1% NCT once daily", "result": "without occurrence of any pain"},
      {"measurement": "tolerability of therapy", "setting": "[1]; 3 ml 1% NCT once daily to outer ear canal", "result": "tolerated very well"},
      {"measurement": "treatment time after which fibrous coating disappeared", "setting": "[2]; burn accident, dressing soaked with aqueous 1% NCT solution two times daily", "result": "three"},
      {"measurement": "microbiological cultures of swabs before and after therapy", "setting": "[2]; aqueous 1% NCT solution two times daily", "result": "sterile"},
      {"measurement": "healing process", "setting": "[2]; dressing soaked with aqueous 1% NCT solution two times daily", "result": "went on without problems"},
      {"measurement": "epithelisation of the new tympanon on ear microscopy", "setting": "outer ear canal; 3 ml 1% NCT once daily", "result": "proceeded regularly without granulation"},
      {"measurement": "infection in the postoperative course", "setting": "outer ear canal; 3 ml 1% NCT once daily", "result": "No infection occurred"},
      {"measurement": "necessary time for achieving a score of zero (range)", "setting": "outer ear canal; 3 ml 1% NCT once daily", "result": "2 to 5", "unit": "days"},
      {"measurement": "time needed for complete epithelisation (mean±SD)", "setting": "outer ear canal; 3 ml 1% NCT once daily", "result": "22.6 ± 3.5", "unit": "days"},
      {"measurement": "time needed for complete epithelisation (range)", "setting": "outer ear canal; 3 ml 1% NCT once daily", "result": "18 to 31", "unit": "days"},
      {"measurement": "average clinical score (0-5)", "setting": "outer ear canal; 3 ml 1% NCT once daily, days 2-5 vs day 1, Wilcoxon p=0,001-0,002", "result": "decreased daily"},
      {"measurement": "necessary time for achieving a score of zero (mean±SD)", "setting": "outer ear canal; 3 ml 1% NCT once daily, score zero = dry outer ear canal", "result": "2.75 ± 0.87", "unit": "days"},
      {"measurement": "drying of the outer ear canal", "setting": "outer ear canal; 3 ml 1% aqueous NCT once daily", "result": "Rapid drying of the outer ear canal was detected in all patients"},
      {"measurement": "stability of solutions on storage", "setting": "[3]", "result": 1, "unit": "year"},
      {"measurement": "pH of aqueous solutions", "setting": "[4]", "result": 8},
      {"measurement": "period of oozing subsequent to operations", "setting": "oozing ear channel; e.g. otoplastic operations, general statement", "result": "reduced the period of oozing"},
      {"measurement": "drying of the ear channel and the tympanoplastic", "setting": "oozing ear channel; rinsing the ear channel with NCT solution, general statement", "result": "1 to 2", "unit": "days"},
      {"measurement": "time after which oozing ceased", "setting": "oozing ear channel; single patient after tympanoplasty, 2 mL aqueous 1% NCT solution instilled one time daily", "result": "three"},
      {"measurement": "time after which swelling ceased", "setting": "oozing ear channel; single patient after tympanoplasty, 2 mL aqueous 1% NCT solution instilled one time daily for five days", "result": "two"},
      {"measurement": "complete epithelization achieved earlier than by conventional treatment with fuchsine", "setting": "oozing ear channel; [5]", "result": 3, "unit": "days"},
      {"measurement": "incorporation of the temporal fascia", "setting": "oozing ear channel; [5]", "result": "proceeded without problems"}
    ]}
  ]
}
